#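 96-well plates; 48 h exposure; 5 concentrations. Endpoints by linear interpolation between flanking doses. Not reached: highest tested concentration assigned. Abbreviation: GI50, concentration required for 50% inhibition of growth. TGI marks complete inhibition of growth.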
# Key:
# Assay in all cases: DTP human tumour cell line panel, 48 h
# [1] = system: OVCAR-4 ovarian
# [2] = system: PC-3 prostate
# [3] = system: CCRF-CEM leukemia
# [4] = system: SF-268 CNS
# [5] = system: NCI-H460 lung
# [6] = system: KM12 colon
# [7] = system: HCC-2998 colon
# [8] = system: SR leukemia
# [9] = system: RXF 393 renal
# [10] = system: NCI-H226 lung
Compound,GI50 [1] [µM],TGI [1] [µM],GI50 [2] [µM],TGI [2] [µM],GI50 [3] [µM],TGI [3] [µM],GI50 [4] [µM],TGI [4] [µM],GI50 [5] [µM],TGI [5] [µM],GI50 [6] [µM],TGI [6] [µM],GI50 [7] [µM],TGI [7] [µM],GI50 [8] [µM],TGI [8] [µM],GI50 [9] [µM],TGI [9] [µM],GI50 [10] [µM],TGI [10] [µM]
CCOC(=O)C1=C(N)Oc2c(sc3c(C)cccc23)C1c1ccc(F)cc1 (stereo not drawn),3.33,18.3,0.496,14.8,0.559,21.6,1.61,19.4,0.415,11,0.464,13.6,1.72,8.78,0.47,17.9,0.242,0.639,0.579,10.6
COc1ccc2c(c1)C(C)Cc1c(ncnc1-n1cnc3ccccc31)N2C (stereo not drawn),1.25,30.6,0.409,17.5,0.481,20.5,0.822,18.1,0.397,11.4,0.444,12.1,0.922,10.4,0.33,28,–,–,12.4,27.7
COC(=O)[C@]12CC[C@@H](C)[C@H](C)[C@@H]1C1=CC[C@@H]3[C@@]4(C)C(C=O)=C[C@@](C)(COC(=O)c5ccco5)[C@@H]4[C@H](O)C[C@@]3(C)[C@]1(C)CC2,2.38,28.2,1.29,7.55,2.54,7.58,2.66,12.6,2.51,6.3,1.83,4.5,1.92,3.71,1.8,5.13,–,–,1.94,4.14
c1ccc(NCCSc2nc3ccccc3s2)cc1,–,> 100,–,> 100,–,31.7,–,> 100,–,> 100,–,> 100,–,–,–,> 100,–,> 100,–,–
O=C(NC1CCCCC1)c1ccc(Nc2ncnc3c2cnn3-c2ccccc2)cc1,–,–,11.8,44.8,> 100,> 100,5.85,> 100,7.09,> 100,57.8,> 100,> 100,> 100,11.6,49.1,2.43,9.33,3.35,21.5
Cn1c(=S)c2[nH]c(SCCCc3ccccc3)nc2n(C)c1=O,–,> 100,–,> 100,–,49.8,–,> 100,–,42.1,–,> 100,–,–,–,27.4,–,> 100,–,81.1
COc1cc2c3c(n(CCCN(CCO)CCO)c(=O)c2cc1OC)-c1cc2c(cc1C3=O)OCO2,0.842,3.61,–,2.12,< 0.01,–,< 0.0332,7.26,< 0.01,2.28,0.365,1.84,< 0.01,< 0.01,< 0.01,< 0.01,4.46,> 100,0.0377,0.724
COc1cc(/C=C2\CCC/C(=C\c3ccc(OCC4CO4)c(OC)c3)C2=O)ccc1OCC1CO1 (stereo not drawn),–,–,3.13,45.7,2.5,> 100,2.62,8.41,2.37,5.59,1.88,5.13,2.25,4.75,2.29,> 100,1.6,3.05,–,–
COc1ccc(-c2nn(-c3cccc(Cl)c3)cc2-c2nc(N)[nH]c(=O)c2C#N)cc1,7.71,61.9,6.3,> 100,3.65,33.8,5.86,35.4,6,27.7,3.84,15.2,5.87,24.9,3.73,21.2,4.51,22.4,6.23,70.3
CS(=O)(=O)CS(=O)(=O)OCCCl,–,1040,–,990,–,687,–,990,–,448,–,1120,–,727,–,876,–,611,–,785
Nc1c(C(=O)Nc2ccccc2Cl)sc2nc3c(cc12)C(=O)CCC3,> 27.5,> 100,1.16,> 100,> 100,> 100,39.3,> 100,0.673,> 100,0.592,> 100,21.2,> 100,–,> 100,2.37,> 28.7,14.6,> 100
CN1C(NNC(=O)c2cccnc2)=NS(=O)(=O)c2cc(Cl)ccc21,> 100,> 100,> 100,> 100,> 100,> 100,> 100,> 100,> 100,> 100,> 100,> 100,> 100,> 100,> 100,> 100,> 100,> 100,> 100,> 100
CC1(C)N=C(N)N=C(N)N1c1cccc(OCCOc2cccc([N+](=O)[O-])c2)c1,14.4,> 100,0.0906,> 38.5,1.23,> 100,0.535,> 100,0.541,> 100,1.37,> 100,2.81,> 100,0.543,> 100,35.2,> 100,48.6,> 100
O=C1C=C(Nc2ccc(S(=O)(=O)Nc3nccs3)cc2)c2ccccc2C1=O,–,> 100,–,> 100,–,48.1,–,> 100,–,> 100,–,37.7,–,47.3,–,> 100,–,> 100,–,70.1
NCCCn1c2c(c3ccccc3c1=O)C(=O)c1ccccc1-2,0.785,9.82,0.451,2.98,< 0.0462,0.375,0.498,8.55,0.0647,9.22,0.124,2.65,0.0684,1.01,0.0743,–,1.22,6.68,0.143,1.74
